Assay: recombinant barcode read abundance after kanamycin selection (control-corrected) (log10(CPM+1)); higher = more efficient recombination; sequences stand for … in AGTGCAGAGAAAATCGGCCAGTTTTCTCTGCCTGCAGTCCGCATGCCGT…AGATTTATGCAGCGGACTGCCTTTCTCCCAAAGTGATAAACCGGACAGTATCATGGACCGGTTTTCCCGGTAATCCGTATTTGCAAGGTTGGTTTCACT; site = the 11-nt target
Description: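 Pooled E. coli target-specificity screen for the IS621 bridge recombinase. Each library plasmid pairs an 11-nt target (CT core) with a bridge RNA whose target-binding loop (9-nt LTG + 4-nt RTG) is reprogrammed; the rest of the 177-nt WT IS621 bridge RNA scaffold is fixed. The plasmid is co-electroporated with a WT donor plasmid; recombinase is induced with 0.1 mM IPTG and recombinants are selected on kanamycin. Recombinant barcodes are sequenced, converted to CPM, averaged over two biological replicates and corrected by the unselected control CPM. Molecule = full bridge RNA written as DNA: LTG = specificity nt 1-9, RTG = reverse complement of specificity nt 8-11, in the WT scaffold.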
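Also: IS621 recombinase and bridge RNA in Escherichia coli cells.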

“ACAGGTTCTTGGGTTCTAACCTGTTGCCT (site ATAGGTTCTAG)” and “ACAGTAGCTTGGGTTCTAACCTGTTGCCG (site ACAGTAGCTCC)” are within 0.2 log units of each other in “recombinant barcode read abundance (log10)” value: 0.0396 for the first, 0.189 for the second.

“ACAGTAGCTTGGGTTCTAACCTGTTGCCG (site ACAGTAGCTCG)” and “ACATACACTTGGGTTCTAACCTGTTGCCT (site ACATACACTAG)” are within 0.2 log units of each other in “recombinant barcode read abundance (log10)” value: 0.862 for the first, 0.991 for the second.

Going from “ACATACACTTGGGTTCTAACCTGTTGCCT (site ACCTACCCTAG)” to “ACATCAACTTGGGTTCTAACCTGTTGCCT (site ACATCAACTAG)”, the “recombinant barcode read abundance (log10)” value rises from 0.298 to 0.807.

“ACATCAACTTGGGTTCTAACCTGTTGCCT (site ACCTCAACTAG)” and “ACATCAACTTGGGTTCTAACCTGTTGCCT (site ACGTCAACTAG)” are within 0.2 log units of each other in “recombinant barcode read abundance (log10)” value: 0.0149 for the first, 0.0953 for the second.

“ACATCAACTTGGGTTCTAACCTGTTGCCT (site ACTTCAACTAG)” and “ACATCTACTTGGGTTCTAACCTGTTGCTA (site ACATCTACTTA)” are within 0.2 log units of each other in “recombinant barcode read abundance (log10)” value: 0.0926 for the first, 0.145 for the second.

Compared with “ACATCTACTTGGGTTCTAACCTGTTGCTA (site ACTTCTACTTA)”, “ACATGGTCTTGGGTTCTAACCTGTTGCGT (site ACATGGTCTAC)” is higher in “recombinant barcode read abundance (log10)” value: 0.0475 for the first, 2.92 for the second.

“ACATGGTCTTGGGTTCTAACCTGTTGCGT (site ACTGGGTCTAC)” and “ACATGTCCTTGGGTTCTAACCTGTTGCCT (site ACATGTCCTAA)” are within 0.2 log units of each other in “recombinant barcode read abundance (log10)” value: 0.115 for the first, 0.0846 for the second.

Going from “ACATGTCCTTGGGTTCTAACCTGTTGCCT (site ACATGTCCTAC)” to “ACATGTCCTTGGGTTCTAACCTGTTGCCT (site ACATGTCCTAG)”, the “recombinant barcode read abundance (log10)” value rises from 0.0127 to 0.828.

First: ACATGTCCTTGGGTTCTAACCTGTTGCCT (site ACATGTCCTAT)
Second: ACATGTCCTTGGGTTCTAACCTGTTGCTT (site ACATGTCCTAA)
The “recombinant barcode read abundance (log10)” value of the first is lower: 0.00753 for the first, 0.333 for the second.

“ACATGTCCTTGGGTTCTAACCTGTTGCTT (site ACATGTCCTAC)” and “ACATGTCCTTGGGTTCTAACCTGTTGCTT (site ACATGTCCTAG)” are within 0.2 log units of each other in “recombinant barcode read abundance (log10)” value: 0.0155 for the first, 0.136 for the second.

First: ACATGTCCTTGGGTTCTAACCTGTTGCTT (site ACATGTCCTAT)
Second: ACATGTGCTTGGGTTCTAACCTGTTGCCT (site ACAGGTGCTAG)
The “recombinant barcode read abundance (log10)” value of the first is higher: 0.287 for the first, 0.0246 for the second.

Compared with “ACATGTGCTTGGGTTCTAACCTGTTGCCT (site ACATGTGCTAG)”, “ACATTAGCTTGGGTTCTAACCTGTTGCTG (site ACAATAGCTCA)” is lower in “recombinant barcode read abundance (log10)” value: 1.66 for the first, 0.182 for the second.

“ACATTAGCTTGGGTTCTAACCTGTTGCTG (site ACACTAGCTCA)” and “ACATTAGCTTGGGTTCTAACCTGTTGCTG (site ACAGTAGCTCA)” are within 0.2 log units of each other in “recombinant barcode read abundance (log10)” value: 0.0561 for the first, 0.18 for the second.

First: ACATTAGCTTGGGTTCTAACCTGTTGCTG (site ACATTAGCTCA)
Second: ACATTGTCTTGGGTTCTAACCTGTTGCGG (site ACAATGTCTCC)
The “recombinant barcode read abundance (log10)” value of the first is higher: 0.603 for the first, 0.13 for the second.

First: ACATTGTCTTGGGTTCTAACCTGTTGCGG (site ACACTGTCTCC)
Second: ACATTGTCTTGGGTTCTAACCTGTTGCGG (site ACAGTGTCTCC)
The “recombinant barcode read abundance (log10)” value of the first is higher: 0.236 for the first, 0.00595 for the second.

Going from “ACATTGTCTTGGGTTCTAACCTGTTGCGG (site ACATTGTCTCC)” to “ACCAACACTTGGGTTCTAACCTGTTGCTT (site ACCAACACTAA)”, the “recombinant barcode read abundance (log10)” value falls from 1.1 to 0.115.

“ACCAACACTTGGGTTCTAACCTGTTGCTT (site TATTTAGCTCC)” and “ACCACGCCTTGGGTTCTAACCTGTTGCCT (site ACCACGCCTAG)” are within 0.2 log units of each other in “recombinant barcode read abundance (log10)” value: 0.259 for the first, 0.342 for the second.

Compared with “ACCACGCCTTGGGTTCTAACCTGTTGCCT (site ATCACGCCTAG)”, “ACCAGCCCTTGGGTTCTAACCTGTTGCTG (site ACCAGCCCTCA)” is higher in “recombinant barcode read abundance (log10)” value: 0.0537 for the first, 1.38 for the second.

“ACCAGCCCTTGGGTTCTAACCTGTTGCTG (site TGATATTCTAG)” and “ACCAGTCCTTGGGTTCTAACCTGTTGCTA (site ACCAGTCCTCA)” are within 0.2 log units of each other in “recombinant barcode read abundance (log10)” value: 0.0743 for the first, 0.065 for the second.

Compared with “ACCAGTCCTTGGGTTCTAACCTGTTGCTA (site ACCAGTCCTTA)”, “ACCATACCTTGGGTTCTAACCTGTTGCAT (site ACCATACCTAT)” is lower in “recombinant barcode read abundance (log10)” value: 0.934 for the first, 0.385 for the second.

For “ACCATACCTTGGGTTCTAACCTGTTGCAT (site TAGGATTCTGC)”, the “recombinant barcode read abundance (log10)” value was 0.124.

Reference: the supplement of paper PMC11208160
